In patent US11512085B2, “Heteroaryl compound having drug activity” (SHANGHAI DUDE MEDICAL TECHNOLOGY CO., LTD, priority 2017, dated 2022):

Tests used:
Ramos = test: In vitro tumor cell proliferation (CellTiter-Glo), Ramos; format: cell-based; conditions: Homo sapiens, 72 h, read-out: Growth IC50
Description: Biological Embodiment 8: Study on Effects of Active Compounds for Inhibiting In Vitro Tumor Cell Proliferation
Promega CellTiter-Glo cell activity detection kit by luminescence (Promega-G7573).
Tumor cell lines were cultured in a 5% of CO2 incubator at 37° C. according to respective culture conditions; and periodic passage was performed, and cells positioned in a logarithmic phase were taken for planking.
3) 90 μL of cell suspension was added into each well of the culture plate, and a culture solution containing no cell was added into blank control;
4) the culture plate was cultured overnight in the 5% of CO2 incubator having relative humidity of 100% at 37° C.
Preparation of a 400× compound storage plate: the compound was diluted from the maximum concentration gradient to the lowest concentration with DMSO. […]
The following steps were performed according to the specification of the Promega CellTiter-Glo cell activity detection kit by luminescence (Promega-G7573). […]
9) the luminescence signal was detected on the 2104 EnVision plate reader.

T cells = test: T cell activation (CD3/CD28 dynabeads, CD69 staining); format: cell-based, Human; conditions: concentration of 10 uM
Description: (§1) Biological Embodiment 3: Influences of In-Vitro Test Compounds on PBMC/B/T Cell Activation
(§2) 4.3 Isolation of B Cells and T Cells
(§3) Cell Isolation Programs Shall Refer to […] Kits
4.4.3 Activation of T Cells
(§4) The co-culture system is as follows:
(§5) Antibody Staining and Data Analysis
(§6) Antibody staining was performed within 24 hours […] according to a standard method.
4.5.2 Activation of T Cells
FITC Mouse Anti-Human CD4
PerCP-Cy™5.5 Mouse Anti-Human CD8
(§7) LIVE/DEAD Fixable Violet Dead Cell Stain Kit

B cells = test: B cell activation (anti-human IgM, CD69 staining); format: cell-based; conditions: concentration of 0.1 uM
Description: as §1, §2, §3
4.4.1 Activation of B Cells
as §4, §5, §6
4.5.1 Activation of PBMC and B Cells
as §7

Structure (SMILES): C=CC(=O)NN1CCCC(n2nc(-c3ccc(Oc4ccccc4)cc3)c3c(N)ncnc32)C1 (stereo not drawn) [Embodiment 6, N-(3-(4-amino-3-(4-phenoxyphenyl)-1H-pyrazolo[3,4-D]pyrimidine-1-yl)-1-piperidyl)-acrylamide]
- IC50 (Ramos): 1400 nM
- T cell activity inhibition effect (T cells): T cell activity inhibition effect
- B cell activity inhibition effect (B cells): obvious B cell activity inhibition effects
